The values that follow come from patent US20100029654A1, “CARDIOVASCULAR COMPOSITIONS AND USE OF THE SAME FOR THE TREATMENT OF ALZHEIMER'S DISEASE” (MOUNT SINAI SCHOOL OF MEDICINE, priority 2006, published 2010).

Entries after “also recorded” stand apart in the source; their conditions may differ.

For series [1], the system named is Tg2576 mice. Briefly: Morris water maze test of spatial memory. Format: in vivo, mouse. From the text: In the MWM assay, experimental animals are placed into a circular water tank and provided with a submerged “escape platform” at a specific location. Appropriate visual cues are located on a wall surrounding the water tank. Through repeated “learning trials”, normal animals typically learn to use the visual cues for spatial navigation and eventually require less time to swim to the platform as reflected by reducing escape latency.
Behavioral assessment of cognitive function by the Morris water maze test. […] At ˜11 months of age, mice were put into the water maze from 4 different quadrants; spatial memory was assessed by recording the average latency time for the animal to escape to the hidden platform. The behavior analysis was consistently conducted during the last 4 hours of the day portion of the light cycle in an environment with minimal stimuli (e.g., noise, movement, or changes in light or temperature).

Series [2] has as its system α-secretase. Also noted: dose or concentration left out as unconfirmed. To be noted: primary Tg2576 neuron cultures, 16 hours.
Series [3] concerns Tg2576 mice. Briefly: tolerability: body weight, fluid consumption, glucose tolerance.
[4] abbreviates: valsartan 10 or 40 mg/kg/day in drinking water, chronic.

Take “N-(1-oxopentyl)-N-[[2-(1H-tetrazol-5-yl) [1,1-biphenyl]-4-yl]methyl]-L-valine [Valsartan]”: in series [1] (Tg2576 mice, valsartan 10 and 40 mg/kg/day vs untreated), the “escape latency in Morris water maze” value is “significant improvement in escape latency; also recorded: significantly reduced escape latency; also recorded: performed significantly better than untreated mice”. For the same substance, in series [1] (WT mice, valsartan 10 or 40 mg/kg/day), the “spatial memory performance in Morris water maze” value is “did not significantly influence spatial memory performance; also recorded: failed to influence spatial reference memory performance”. For the same substance, in series [2], the α-secretase activity result is “no detectable change”. Moreover, in series [3] (setting [4]), the body weight result is listed as “no detectable changes in body weight; also recorded: did not significantly influence animal body weight” and the fluid intake result is on record as “did not significantly influence the amount of fluid intake”. Also, the glucose-tolerance responses result in series [3] (valsartan 10 or 40 mg/kg/day, ~5 months) was “did not significantly influence”.
